In US20090197926A1, “BENZIMIDAZOLES AND THEIR USE FOR THE TREATMENT OF DIABETES” (priority 2006, published 2009):

Target: T1, human DGAT1 (Homo sapiens, UniProt O75907)
T1 construct: made in house; host or cells: Sf9 insect cells (recombinant baculovirus); membrane fraction
T1 sequence (O75907 1-488): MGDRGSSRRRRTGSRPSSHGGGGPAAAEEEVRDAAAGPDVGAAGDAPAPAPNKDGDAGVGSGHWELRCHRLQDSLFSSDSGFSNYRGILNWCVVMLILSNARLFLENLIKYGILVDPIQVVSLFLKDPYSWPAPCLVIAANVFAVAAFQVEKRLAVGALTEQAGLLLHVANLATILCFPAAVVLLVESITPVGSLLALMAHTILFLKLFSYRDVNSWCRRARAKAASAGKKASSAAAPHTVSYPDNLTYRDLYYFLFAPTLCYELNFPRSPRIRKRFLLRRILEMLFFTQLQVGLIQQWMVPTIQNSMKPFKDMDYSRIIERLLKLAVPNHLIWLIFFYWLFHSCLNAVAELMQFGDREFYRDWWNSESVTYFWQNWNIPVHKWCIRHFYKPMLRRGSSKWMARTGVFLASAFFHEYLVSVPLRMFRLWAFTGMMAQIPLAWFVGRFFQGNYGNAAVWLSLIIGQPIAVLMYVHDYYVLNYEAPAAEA
Test: Human Enzyme Assay (DGAT1 inhibition)
Assay type: biochemical
Details: human DGAT1 expressed in insect cell (sf9) membranes; 14C oleoyl coenzyme A, 1,2 dioleoyl-sn-glycerol, room temperature 30 minutes
Experimental: The in vitro assay to identify DGAT1 inhibitors uses human DGAT1 expressed in insect cell membranes as the enzyme source (Proc. Natl. Acad. Sci. 1998, 95, 13018-13023). Briefly, sf9 cells were infected with recombinant baculovirus containing human DGAT1 coding sequences and harvested after 48 h. Cells were lysed by sonication and membranes isolated by centrifuging at 28000 rpm for 1 h at 4° C. on a 41% sucrose gradient. The membrane fraction at the interphase was collected, washed, and stored in liquid nitrogen.
DGAT1 activity was assayed by a modification of the method described by Coleman (Methods in Enzymology 1992, 209, 98-102). Compound at 1-10 μM was incubated with 0.4 μg membrane protein, 5 mM MgCl2, and 100 μM 1,2 dioleoyl-sn-glycerol in a total assay volume of 200 μl in plastic tubes. The reaction was started by adding ^14C oleoyl coenzyme A (30 μM final concentration) and incubated at room temperature for 30 minutes. The reaction was stopped by adding 1.5 mL 2-propanol:heptane:water (80:20:2). Radioactive triolein product was separated into the organic phase by adding 1 mL heptane and 0.5 mL 0.1 M carbonate buffer pH 9.5. DGAT1 activity was quantified by counting aliquots of the upper heptane layer by liquid scintillography.

| Compound | IC50 [nM] |
| --- | --- |
| O=C(O)C[C@H]1CC[C@H](c2ccc3[nH]c(-c4nnc(Nc5cc(F)c(F)cc5F)o4)nc3c2)CC1 [Example 1, trans-2-[4-[2-[5-[(2,4,5-Trifluorophenyl)amino]-1,3,4-oxadiazol-2-yl]-1H-benzoimidazol-5-yl]cyclohexyl]acetic Acid] | 11 |
| O=C(O)[C@H]1CC[C@H](Oc2ccc3nc(-c4nnc(Nc5cc(F)c(F)cc5F)o4)[nH]c3c2)CC1 [Example 14, trans-4-[[2-[5-[(2,4,5-Trifluorophenyl)amino]-1,3,4-oxadiazol-2-yl]-3H-benzoimidazol-5-yl]oxy]cyclohexane-1-carboxylic Acid] | 43 |
| O=C(O)C[C@H]1CC[C@H](c2ccc3[nH]c(-c4nnc(Nc5ccc(Cl)cc5)o4)nc3c2)CC1 [Example 7, (4-{2-[5-(4-Chlorophenylamino)[1,3,4]oxadiazol-2-yl]-1H-benzimidazol-5-yl}-cyclohexyl)acetic Acid] | 2 |
| O=C(O)C[C@H]1CC[C@H](c2ccc3[nH]c(-c4nnc(Nc5ccc6c(c5)OCCO6)o4)nc3c2)CC1 [Example 6, (4-{2-[5-(2,3-Dihydrobenzo[1,4]dioxin-6-ylamino)[1,3,4]oxadiazol-2-yl]-1H-benzimidazol-5-yl}cyclohexyl)acetic Acid] | 54 |
| N#Cc1ccc(Nc2nnc(-c3nc4cc([C@H]5CC[C@H](CC(=O)O)CC5)ccc4[nH]3)o2)cc1 [Example 4, [trans-4-(2-{5-[(4-Cyanophenyl)amino]-1,3,4-oxadiazol-2-yl}-1H-benzimidazol-5-yl)cyclohexyl]acetic Acid] | 19 |
| O=C(O)[C@H]1CC[C@@H](Oc2ccc3nc(-c4nnc(Nc5ccc(F)cc5)o4)[nH]c3c2F)CC1 [Example 15, cis-4-{4-Fluoro-2-[5-(4-fluorophenylamino)-1,3,4-oxadiazol-2-yl]-1H-benzimidazol-5-yloxy}cyclohexanecarboxylic Acid] | 19 |
| O=C(O)C[C@H]1CC[C@H](c2ccc3[nH]c(-c4nnc(Nc5ccc(F)c(F)c5)o4)nc3c2)CC1 [Example 2, trans-2-[4-[2-[5-[(3,4-Difluorophenyl)amino]-1,3,4-oxadiazol-2-yl]-1H-benzoimidazol-5-yl]cyclohexyl]acetic Acid] | 10 |
| O=C(O)[C@H]1CC[C@@H](Oc2ccc3nc(-c4nnc(Nc5cc(F)c(F)cc5F)o4)[nH]c3c2F)CC1 [Example 17, cis-4-[[4-fluoro-2-[5-[(2,4,5-trifluorophenyl)amino]-1,3,4-oxadiazol-2-yl]-3H-benzoimidazol-5-yl]oxy]cyclohexane-1-carboxylic Acid] | 13 |
| (4-{2-[5-(3,4,5-Trifluorophenylamino)[1,3,4]oxadiazol-2-yl]-1H-benzimidazol-5-yl}cyclohexyl)acetic Acid [Example 11] | 3 |
| O=C(O)C[C@H]1CC[C@H](c2ccc3[nH]c(-c4nnc(Nc5ccc(F)cc5)o4)nc3c2)CC1 [Example 10, (4-{2-[5-(4-Fluorophenylamino)[1,3,4]oxadiazol-2-yl]-1H-benzimidazol-5-yl}cyclohexyl)acetic Acid] | 10 |
| O=C(O)C[C@H]1CC[C@H](c2ccc3[nH]c(-c4nnc(Nc5cccc(Cl)c5)o4)nc3c2)CC1 [Example 8, (4-{2-[5-(3-Chlorophenylamino)[1,3,4]oxadiazol-2-yl]-1H-benzimidazol-5-yl}-cyclohexyl)acetic Acid] | 8 |
| O=C(O)C[C@H]1CC[C@H](c2ccc3[nH]c(-c4nnc(Nc5cccc(OCc6ccccc6)c5)o4)nc3c2)CC1 [Example 3, {trans-4-[2-(5-{[3-(Benzyloxy)phenyl]amino}-1,3,4-oxadiazol-2-yl)-1H-benzimidazol-5-yl]cyclohexyl}acetic Acid] | 6 |
| O=C(O)[C@H]1CC[C@H](Oc2ccc3nc(-c4nnc(Nc5ccc(F)cc5)o4)[nH]c3c2F)CC1 [Example 16, trans-4-{4-Fluoro-2-[5-(4-fluorophenylamino)-1,3,4-oxadiazol-2-yl]-1H-benzimidazol-5-yloxy}cyclohexanecarboxylic acid] | 23 |
| O=C(O)[C@H]1CC[C@H](Oc2ccc3nc(-c4nnc(Nc5cc(F)c(F)cc5F)o4)[nH]c3c2F)CC1 [Example 18, trans-4-[[4-fluoro-2-[5-[(2,4,5-trifluorophenyl)amino]-1,3,4-oxadiazol-2-yl]-3H-benzoimidazol-5-yl]oxy]cyclohexane-1-carboxylic Acid] | 16 |
